According to patent US8138171B2, “Dioxolane and dioxolanone fused indolobenzadiazepine HCV NS5B inhibitors” (Bristol-Myers Squibb Company, priority 2008, dated 2012):
Where two headings read alike, the source gives them in different places.

What was measured:
[1] = target: T1, HCV NS5B RdRp genotype 1b (Hepatitis C virus genotype 1b, UniProt P26663); assay: Modified HCV NS5B RdRp enzyme assay (preincubation protocol); assay type: biochemical
T1 construct: The protein was expressed with an 18 amino acid C-terminal truncation to enhance the solubility; made in house; host or cells: E. coli BL21(DE3), pET21a
T1 sequence (P26663 2420-2992): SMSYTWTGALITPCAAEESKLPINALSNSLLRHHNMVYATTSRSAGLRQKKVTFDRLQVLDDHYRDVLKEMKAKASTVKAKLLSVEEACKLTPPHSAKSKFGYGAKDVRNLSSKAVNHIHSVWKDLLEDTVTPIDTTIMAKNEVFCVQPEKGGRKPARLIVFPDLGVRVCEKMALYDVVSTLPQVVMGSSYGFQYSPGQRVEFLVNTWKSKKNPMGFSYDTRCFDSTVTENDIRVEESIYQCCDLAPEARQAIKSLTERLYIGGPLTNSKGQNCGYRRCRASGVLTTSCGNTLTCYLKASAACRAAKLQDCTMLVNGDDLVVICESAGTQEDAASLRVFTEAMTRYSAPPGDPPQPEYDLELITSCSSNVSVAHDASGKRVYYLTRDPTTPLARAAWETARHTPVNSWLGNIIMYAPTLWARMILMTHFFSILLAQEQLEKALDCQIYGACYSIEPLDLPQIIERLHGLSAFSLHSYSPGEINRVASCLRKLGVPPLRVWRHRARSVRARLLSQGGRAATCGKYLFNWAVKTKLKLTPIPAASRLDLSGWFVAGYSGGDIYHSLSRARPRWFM
Method: HCV NS5B RdRp cloning, expression, and purification. The cDNA encoding the NS5B protein of HCV, genotype 1b, was cloned into the pET21a expression vector. The protein was expressed with an 18 amino acid C-terminal truncation to enhance the solubility. The E. coli competent cell line BL21(DE3) was used for expression of the protein. Cultures were grown at 37° C. for ˜4 hours until the cultures reached an optical density of 2.0 at 600 nm. The cultures were cooled to 20° C. and induced with 1 mM IPTG. Fresh ampicillin was added to a final concentration of 50 μg/ml and the cells were grown overnight at 20° C.
Cell pellets (3 L) were lysed for purification to yield 15-24 […] of purified NS5B. The lysis buffer consisted of 20 mM Tris-HCl, pH 7.4, 500 mM NaCl, 0.5% triton X-100, 1 mM DTT, 1 mM EDTA, 20% glycerol, 0.5 mg/ml lysozyme, 10 mM MgCl2, 15 ug/ml deoxyribonuclease I, and Complete™ protease inhibitor tablets (Roche). After addition of the lysis buffer, frozen cell pellets were resuspended using a tissue homogenizer. To reduce the viscosity of the sample, aliquots of the lysate were sonicated on ice using a microtip attached to a Branson sonicator. The sonicated lysate was centrifuged at 100,000×g for 1 hr at 4° C. and filtered through a 0.2 μm filter unit (Corning).
The protein was purified using three sequential chromatography steps: Heparin sepharose CL-6B, polyU sepharose 4B, and Hitrap SP sepharose (Pharmacia). The chromatography buffers were identical to the lysis buffer but contained no lysozyme, deoxyribonuclease I, MgCl2 or protease inhibitor and the NaCl concentration of the buffer was adjusted according to the requirements for charging the protein onto the column. Each column was eluted with a NaCl gradient which varied in length from 5-50 column volumes depending on the column type. After the final chromatography step, the resulting purity of the enzyme is >90% based on SDS-PAGE analysis. The enzyme was aliquoted and stored at −80° C.
Standard HCV NS5B RdRp enzyme assay. HCV RdRp genotype 1b assays were run in a final volume of 60 μl in 96 well plates (Costar 3912). The assay buffer is composed of 20 mM Hepes, pH 7.5, 2.5 mM KCl, 2.5 mM MgCl2, 1 mM DTT, 1.6 U RNAse inhibitor (Promega N2515), 0.1 mg/ml BSA (Promega R3961), and 2% glycerol. All compounds were serially diluted (3-fold) in DMSO and diluted further in water such that the final concentration of DMSO in the assay was 2%. HCV RdRp genotype 1b enzyme was used at a final concentration of 28 nM. A polyA template was used at 6 nM, and a biotinylated oligo-dT12 primer was used at 180 nM final concentration. Template was obtained commercially (Amersham 27-4110). Biotinylated primer was prepared by Sigma Genosys. 3H-UTP was used at 0.6 μCi (0.29 μM total UTP). Reactions were initiated by the addition of enzyme, incubated at 30° C. for 60 min, and stopped by adding 25 μl of 50 mM EDTA containing SPA beads (4 μg/μl, Amersham RPNQ 0007). Plates were read on a Packard Top Count NXT after >1 hr incubation at room temperature.
Modified HCV NS5B RdRp enzyme assay. A modified enzyme assay was performed essentially as described for the standard enzyme assay except for the following: The biotinylated oligo dT12 primer was precaptured on streptavidin-coated SPA beads by mixing primer and beads in assay buffer and incubating at room temperature for one hour. Unbound primer was removed after centrifugation. The primer-bound beads were resuspended in 20 mM Hepes buffer, pH 7.5 and used in the assay at final concentrations of 20 nM primer and 0.67 μg/μl beads. Order of addition in the assay: enzyme (14 nM) was added to diluted compound followed by the addition of a mixture of template (0.2 nM), 3H-UTP (0.6 μCi, 0.29 μM), and primer-bound beads, to initiate the reaction; concentrations given are final. Reactions were allowed to proceed for 4 hours at 30° C.
IC50 values for compounds were determined using seven different. […]

[2] = test system: HCV replicon cells; assay: HCV replicon FRET assay; assay type: cell-based; settings: Hepatitis C virus
From the text: FRET Assay Preparation. To perform the HCV FRET screening assay, 96-well cell culture plates were used. The FRET peptide (Anaspec, Inc.) (Taliani et al., Anal. Biochem. 1996, 240, 60-67) contains a fluorescence donor, EDANS, near one end of the peptide and an acceptor, DABCYL, near the other end. The fluorescence of the peptide is quenched by […] resonance energy transfer (RET) between the donor and the acceptor, but as the NS3 protease cleaves the peptide the products are released from RET quenching and the fluorescence of the donor becomes apparent. The assay reagent was made as follows: 5× cell Luciferase cell culture lysis reagent from Promega (#E153A) diluted to 1× with dH2O, NaCl added to 150 mM final, the FRET peptide diluted to 20 uM final from a 2 mM stock.
To prepare plates, HCV replicon cells, with or without a Renilla luciferase reporter gene, were trypsinized and placed into each well of a 96-well plate with titrated test compounds added in columns 3 through 12; columns 1 and 2 contained a control compound (HCV protease inhibitor), and the bottom row contained cells without compound. The plates were then placed in a CO2 incubator at 37° C.
Assays. Subsequent to addition of the test compounds described above (FRET Assay Preparation), at various times the plate was removed and Alamar blue solution (Trek Diagnostics, #00-100) was added per well as a measure of cellular toxicity, After reading in a Cytoflour 4000 instrument (PE Biosystems), plates were rinsed with PBS and then used for FRET assay by the addition of 30 ul of the FRET peptide assay reagent described above (FRET Assay Preparation) per well. The plate was then placed into the Cytoflour 4000 instrument which had been set to 340 excite/490 emission, automatic mode for 20 cycles and the plate read in a kinetic mode. Typically, the signal to noise using an endpoint analysis after the reads was at least three-fold. Alternatively, after Alamar blue reading, plates were rinsed with PBS, 50 ul of DMEM (high glucose) without phenol red was added and plates were then used for luciferase assay using the Promega Dual-Glo Luciferase Assay System.
Compound analysis was determined by quantification of the relative HCV replicon inhibition and the relative cytotoxicity values. To calculate cytoxicity values, the average Alamar Blue fluorescence signals from the control wells were set as 100% non-toxic. The individual signals in each of the compound test wells were then divided by the average control signal and multiplied by 100% to determine […]. To calculate the HCV replicon inhibition values, an average background value was obtained from the two wells containing the highest amount of HCV protease inhibitor at the end of the assay period. These numbers were similar to those obtained from naive Huh-7 cells.
The background numbers were then subtracted from the average signal obtained from the control wells and this number was used as 100% activity. The individual signals in each of the compound test wells were then divided by the averaged control values after background subtraction and multiplied by 100% to determine percent activity. EC50 values for a protease inhibitor titration were calculated as the concentration which caused a 50% reduction in FRET or luciferase activity. The two numbers generated for the compound plate, percent cytoxicity and percent activity were used to determine compounds of interest for further analysis.

[3] = HCV NS5B RdRp genotype 1b, preincubation protocol, read-out: IC50
[4] = HCV replicon cells, FRET assay, read-out: EC50

Work on `COc1ccc2c(c1)[C@@H]1OC(C)(C)O[C@]1(C(=O)N(C)CCN(C)C)Cn1c-2c(C2CCCCC2)c2ccc(C(=O)NS(=O)(=O)N(C)C)cc21` (racemic) [Example 1, rac-(3aR,14bS)-10-Cyclohexyl-N^3a-(2-(dimethylamino)ethyl)-N^7-((dimethylamino)sulfonyl)-N^3a,2,2-trimethyl-13-(methyloxy)-4H-[1,3]dioxolo[4,5-d]indolo[2,1-a][2]benzazepine-3a,7(14bH)-dicarboxamide] yielded an IC50 [1, 3] of 170 nM and an EC50 [2, 4] of 130 nM.

`COc1ccc2c(c1)[C@@H]1OC(=O)O[C@]1(C(=O)N1C[C@@H](C)O[C@@H](C)C1)Cn1c-2c(C2CCCCC2)c2ccc(C(=O)NS(=O)(=O)N(C)C)cc21` (racemic) [Example 2, rac-(3aR,14bS)-10-Cyclohexyl-N-((dimethylamino)sulfonyl)-3a4(2R,6S)-2,6-dimethyl-4-morpholinyl)carbonyl)-13-(methyloxy)-2-oxo-3a,14b-dihydro-4H-[1,3]diaxolo[4,5-d]indolo[2,1-a][2]benzazepine-7-carboxamide] was tested, and the IC50 [1, 3] was 33 nM and the EC50 [2, 4] was 59 nM.

Molecule `COc1ccc2c(c1)[C@@H]1OC(C)(C)O[C@]1(C(=O)N1C[C@@H](C)O[C@@H](C)C1)Cn1c-2c(C2CCCCC2)c2ccc(C(=O)NS(=O)(=O)N(C)C)cc21` (racemic) [Example 3, rac-(3aR,14bS)-10-Cyclohexyl-N-((dimethylamino)sulfonyl)-3a-(((2R,6S)-2,6-dimethyl-4-morpholinyl)carbonyl)-2,2-dimethyl-13-(methyloxy)-3a,14b-dihydro-4H-[1,3]dioxolo[4,5-d]indolo[2,1-a][2]benzazepine-7-carboxamide] has an IC50 [1, 3] of 110 nM and an EC50 [2] of 170 nM.

`COc1ccc2c(c1)[C@@H]1OC(=O)O[C@]1(C(=O)N1C3CCC1CN(C)C3)Cn1c-2c(C2CCCCC2)c2ccc(C(=O)NS(=O)(=O)N(C)C)cc21` (racemic) [Example 4, rac-(3aR,14bS)-10-Cyclohexyl-N-((dimethylamino)sulfonyl)-3a-((3-methyl-3,8-diazabicyclo[3.2.1]oct-8-yl)carbonyl)-13-(methyloxy)-2-oxo-3a,14b-dihydro-4H-[1,3]dioxolo[4,5-d]indolo[2,1-a][2]benzazepine-7-carboxamid] was tested, and the IC50 [1] was 91 nM and the EC50 [2] was 100 nM.

For `COc1ccc2c(c1)[C@@H]1OC(C)(C)O[C@]1(C(=O)N1C3CCC1CN(C)C3)Cn1c-2c(C2CCCCC2)c2ccc(C(=O)NS(=O)(=O)N(C)C)cc21` (racemic) [Example 5, rac-(3aR,4bS)-10-Cyclohexyl-N-((dimethylamino)sulfonyl)-2,2-dimethyl-3a-((3-methyl-3,8-diazabicyclo[3.2.1]oct-8-yl)carbonyl)-13-(methyloxy)-3a,14b-dihydro-4H-[1,3]dioxolo[4,5-d]indolo[2,1-a][2]benzazepine-7-carboxamid], the IC50 [1] was 590 nM and the EC50 [2] was 140 nM.

Molecule `COc1ccc2c(c1)[C@@H]1OCO[C@]1(C(=O)N1C3CCC1CN(C)C3)Cn1c-2c(C2CCCCC2)c2ccc(C(=O)NS(=O)(=O)N(C)C)cc21` (racemic) [Example 6, rac-(3aR,14bS)-10-Cyclohexyl-N-((dimethylamino)sulfonyl)-3a-((3-methyl-3,8-diazabicyclo[3.2.1]oct-8-yl)carbonyl)-13-(methyloxy)-3a,14b-dihydro-4H-[1,3]dioxolo[4,5-d]indolo[2,1-a][2]benzazepine-7-carboxamid] has an IC50 [1] of 430 nM and an EC50 [2] of 140 nM.
